pIC50: −log10 of the molar value. Where a name gives a salt, the structure may show the parent alone.
System: not given
Assay: not given
Conditions: not given

melting point | Compound
195 to 197 °C | Cc1ccc2cccc(OCc3c(Cl)ccc(C(=O)N4CCNCC4)c3Cl)c2n1.Cl.Cl
222 to 225 °C | CNC(=O)c1ccc(C=CC(=O)NC/C=C\c2ccc(Cl)c(COc3cccc4ccc(C)nc34)c2Cl)cc1OC (as salt: hydrochloride) [50-(1) (hydrochloride), 8-[2,6-Dichloro-3-[(Z)-3-[3-methoxy-4-(methylcarbamoyl)cinnamoylamino]-1-propenyl]benzyloxy]-2-methylquinoline]
233 to 240 °C | COc1nc2c(OCc3c(Cl)ccc(-n4cccc4CNC(=O)/C=C/c4ccc(NC(C)=O)nc4)c3Cl)cccc2n1C [Example 21, 2-[(E)-3-(6-acetamidopyridin-3-yl)acryloylaminomethyl]-1-[2,4-dichloro-3-(2-methoxy-1-methyl-1H-benzimidazol-4-yloxymethyl)phenyl]pyrrole]

Molecular target: T1, Bradykinin receptor (Cavia porcellus, UniProt O70526)
T1 construct: from tissue; host or cells: guinea pig ileum, crude membrane preparation
T1 sequence (O70526 1-372): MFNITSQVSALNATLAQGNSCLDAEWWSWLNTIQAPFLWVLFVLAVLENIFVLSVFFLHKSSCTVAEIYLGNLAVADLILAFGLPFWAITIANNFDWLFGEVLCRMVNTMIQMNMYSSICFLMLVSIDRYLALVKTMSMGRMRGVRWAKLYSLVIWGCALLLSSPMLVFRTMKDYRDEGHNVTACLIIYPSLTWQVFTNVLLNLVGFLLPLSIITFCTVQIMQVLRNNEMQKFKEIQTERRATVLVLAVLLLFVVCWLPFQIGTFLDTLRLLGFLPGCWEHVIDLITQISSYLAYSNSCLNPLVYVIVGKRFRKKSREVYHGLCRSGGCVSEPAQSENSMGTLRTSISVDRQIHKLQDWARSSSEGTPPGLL
Assay: 3H-Bradykinin receptor binding (crude guinea pig ileum membrane)
Conditions: crude ileum membrane of male Hartly strain guinea pigs; 3H-Bradykinin 0.06 nM; room temperature, 60 minutes; read-out: Inhibition of 3H-Bradykinin binding IC50
Method: ^3H-Bradykinin receptor binding
(a) Crude ileum membrane preparation
Male Hartly strain guinea pigs were sacrificed by decapitation. The ileum was removed and homogenized in buffer (50 mM trimethylaminoethanesulfonic acid (TES), 1 mM 1,10-phenanthroline pH 6.8). The homogenate was centrifuged (1000×g, 20 minutes) to remove tissue clumps and the supernatant was centrifuges (100,000×g, 60 minutes) to yield a pellet. The pellet was resuspended in buffer (50 mM TES, 1 mM 1,10-phenanthroline, 140 mg/l bacitracin, 1 mM dithiothreiol, 0.1% bovine serum albumin pH 6.8) and homogenized with a glass-teflon homogenizer to yield suspension which was referred to as crude membrane suspension. The obtained membrane suspension was stored at −80° C. until use.
(b) ^3H-Bradykinin binding to the membrane
The frozen crude membrane suspension was thawed. In binding assays, ^3H-Bradykinin (0.06 nM) and the test compound were incubated with 50 μl of the membrane suspension at room temperature for 60 minutes in a final volume of 250 μl. Separation of receptor-bound from free ^3H-Bradykinin is achieved by immediate filtration under vacuum and washed three times with 5 ml of ice-cold buffer (50 mM Tris-HCl pH 7.5). Non-specific binding was defined as binding in the presence of 0.1 μM Bradykinin. The radioactivity retained on rinsed filters was determined by a liquid-scintillation counter.

Compound | pIC50
Cc1ccc2cccc(OCc3c(Cl)ccc(-n4cccc4CNC(=O)/C=C/c4ccc(/C=C/c5ccncc5)nc4)c3Cl)c2n1 [15 (trihydrochloride), 1-[2,4-Dichloro-3-(2-methylquinolin-8-yloxymethyl)phenyl]-2-[(E)-3-[6-[(E)-2-(pyridin-4-yl)vinyl]pyridin-3-yl]acryloylaminomethyl]pyrrole] | 8.59
CCOC(=O)c1ccc(/C=C/C(=O)NCc2cccn2-c2ccc(Cl)c(COc3cccc4ccc(C)nc34)c2Cl)cn1 [16-(1), 1-[2,4-Dichloro-3-(2-methylquinolin-8-yloxymethyl)phenyl]-2-[(E)-3-(6-ethoxycarbonylpyridin-3-yl)acryloylaminomethyl]pyrrole] | 8.48
Cc1nc2c(OCc3c(Cl)ccc(-n4cccc4CNC(=O)/C=C/c4ccc(/C=C/c5ccncc5)nc4)c3Cl)cccn2c1Br [23-(3) (trihydrochloride), 1-(3-(3-bromo-2-methylimidazo[1,2-a]pyridin-8-yloxymethyl)-2,4-dichlorophenyl]-2-[(E)-3-[6-[(E)-2-(pyridin-4-yl)vinyl]pyridin-3-yl]acryloylaminomethyl]pyrrole] | 8.37
CNC(=O)c1ccc(/C=C/C(=O)NCc2cccn2-c2ccc(Cl)c(COc3cccc4c(-n5ccnc5)cc(C)nc34)c2Cl)cc1 [33 (dihydrochloride)] | 8.49

More lines, now with the values ahead:

pIC50 | Compound
8.64 | CNC(=O)c1ccc(/C=C/C(=O)NCc2ccccc2-c2ccc(C)c(COc3cccc4ccc(C)nc34)c2C)cc1 [40-(6)]
8.55 | CNC(=O)c1ccc(C=CC(=O)NCc2sccc2-c2ccc(C)c(COc3cccc4ccc(C)nc34)c2C)cc1 [45-(6) (hydrochloride), 3-[2,4-Dimethyl-3-(2-methylquinolin-8-yloxymethyl)-phenyl]-2-[4-(methylcarbamoyl)-cinnamoylaminomethyl]thiophene]
8.13 | CNC(=O)c1ccc(C=CC(=O)NC/C=C\c2ccc(Cl)c(COc3cccc4ccc(C)nc34)c2Cl)cc1OC [50-(1) (hydrochloride), 8-[2,6-Dichloro-3-[(Z)-3-[3-methoxy-4-(methylcarbamoyl)cinnamoylamino]-1-propenyl]benzyloxy]-2-methylquinoline]

— patent publication US6344462B1, “Heterocyclic compounds as bradykinin antagonists” (Fujisawa Pharmaceutical Co., Ltd., priority 1995, dated 2002)
